Patent publication US20210205329A1 (The University of North Carolina at Chapel Hill, priority 2018, published 2021)

Experiments:
TLR4/MD-2 complex = target: T1, TLR4/MD-2 complex (Mus musculus, UniProt Q9QUK6); experiment: TLR4/MD-2 co-immunoprecipitation in LPS-treated RAW264.7 cells; assay type: cell-based; settings: 1.0 μM; LPS 1 μg/ml; 24 hrs post-treatment
T1 construct: protein extracts were collected 24 hrs post-treatment and immunoprecipitated with antibody to TLR4; endogenous in cells; host or cells: RAW264.7
T1 sequence (Q9QUK6 26-835): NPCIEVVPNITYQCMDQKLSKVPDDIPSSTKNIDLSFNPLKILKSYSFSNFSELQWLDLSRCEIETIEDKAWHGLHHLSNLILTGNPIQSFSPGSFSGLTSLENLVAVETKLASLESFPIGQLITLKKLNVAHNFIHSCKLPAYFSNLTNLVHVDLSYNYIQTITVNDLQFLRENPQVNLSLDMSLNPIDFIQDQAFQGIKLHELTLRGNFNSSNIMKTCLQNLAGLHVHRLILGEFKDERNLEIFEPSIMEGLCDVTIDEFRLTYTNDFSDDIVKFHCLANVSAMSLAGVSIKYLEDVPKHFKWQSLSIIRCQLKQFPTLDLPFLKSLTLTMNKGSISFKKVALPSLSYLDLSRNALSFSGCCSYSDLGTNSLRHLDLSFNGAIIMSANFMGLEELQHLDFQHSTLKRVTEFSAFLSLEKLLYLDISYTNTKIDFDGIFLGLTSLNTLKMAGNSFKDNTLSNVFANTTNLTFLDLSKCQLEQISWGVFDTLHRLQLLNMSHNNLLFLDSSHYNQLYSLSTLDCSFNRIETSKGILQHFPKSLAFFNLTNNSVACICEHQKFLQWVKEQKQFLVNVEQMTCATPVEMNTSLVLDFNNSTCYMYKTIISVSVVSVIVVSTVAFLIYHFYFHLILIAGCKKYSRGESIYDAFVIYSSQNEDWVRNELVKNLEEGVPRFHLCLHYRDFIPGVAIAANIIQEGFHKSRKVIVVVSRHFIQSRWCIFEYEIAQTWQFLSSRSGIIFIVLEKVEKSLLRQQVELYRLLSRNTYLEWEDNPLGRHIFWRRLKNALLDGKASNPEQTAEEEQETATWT
Protocol: Co-Immunoprecipitation Assay RAW264.7 cells [treated with LPS (1 μg/ml), 3α,5α-THP (1 μM) or pregnenolone (1 μM)] were exposed to chemical protein crosslinking (Poulopoulos et al, 2009) at 24 hrs post-treatment. Briefly, the cells were incubated (20 min on ice) with 1 mM of the cleavable, membrane-permeable crosslinker DSP (Thermo Fisher Scientific, Cat. #PG82081). Rat VTA homogenates were incubated (20 min on ice) with 200 μM of DSP. The crosslinker was quenched in 1 M Tris buffer (pH 7.5) (to a final concentration of 10-20 mM), and the material was centrifuged at 21,000×g for 15 min. Proteins from the cells were extracted with Pierce IP Lysis Buffer (Thermo Fisher Scientific, Cat. #87787) supplemented with protease and phosphatase inhibitor cocktails (Sigma). Proteins from the VTA were extracted with CelLytic MT (dialyzable mild detergent, bicine and 150 mM NaCl; Sigma Aldrich, St. Louis, Mo., USA, Cat. #C3228) supplemented with protease and phosphatase inhibitor cocktails (Sigma) according to the manufacturers instructions. […]

MCP-1 = MCP-1 ELISA in VTA, amygdala and hypothalamus of female and male P rats; assay type: in vivo, rat; settings: 15 mg/kg IP
Protocol: (Two-way ANOVA: F (1,28)=20.92, P<0.0001), and Hypothalamus [female (27%) and male (32%)] (Two-way ANOVA: F (1,28)=31.55, P<0.0001).
ELISA. Brain tissue micropunches were lysed with Cellyte MT and the extracts were assayed for protein content by the BCA procedure (Pierce) and for MCP-1 using the rat MCP-1 ELISA kit (Raybiotech—ERC-MCP-1-CL; Norcross, Ga., USA) or for fracktalkine using the rat fractalkine ELISA kit (Raybiotech—ERC-CX3CL1-CL; Norcross, Ga., USA) as per manufacturer's instructions.
To determine if the effects of 3α,5α-THP on MCP-1 were selective for P rat NAc, the effects of 3α,5α-THP administration in VTA, Amygdala and Hypothalamus of both female and male P rats was examined.

Row | SMILES | reduction of MD-2 co-precipitated with TLR4 (TLR4/MD-2 complex) [%] | reduction of MCP-1 levels in Amygdala (MCP-1; female P rats) [%] | reduction of MCP-1 levels in Hypothalamus (MCP-1; female P rats) [%] | reduction of MCP-1 levels in VTA (MCP-1; female P rats) [%] | reduction of MCP-1 levels in Amygdala (MCP-1; male P rats) [%] | reduction of MCP-1 levels in Hypothalamus (MCP-1; male P rats) [%] | reduction of MCP-1 levels in VTA (MCP-1; male P rats) [%]
1 | CC(=O)[C@H]1CC[C@H]2[C@@H]3CC[C@H]4C[C@H](O)CC[C@]4(C)[C@H]3CC[C@]12C [3α,5α-THP, (3α,5α)3-hydroxypregnan-20-one] | 45.4±6.9 | 47 | 27 | 27 | 58 | 32 | 21
2 | CC(=O)[C@H]1CC[C@H]2[C@@H]3CC=C4C[C@@H](O)CC[C@]4(C)[C@H]3CC[C@]12C [pregnenolone] | 57.2±7.3 | – | – | – | – | – | –
